Assay results as given in PubChem BioAssay (NCI).
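Grown in 96-well plates, cells were treated for 48 hours with each compound at five concentrations. Insufficient inhibition: endpoint recorded as highest concentration tested. Abbreviation: GI50, concentration required for 50% inhibition of growth. At the TGI there is no net growth.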

Key:
Experiment in all cases: NCI tumour cell line growth inhibition, 48 h
CAKI-1 renal = test system: CAKI-1 renal
KM12 colon = test system: KM12 colon
LOX IMVI melanoma = test system: LOX IMVI melanoma
OVCAR-3 ovarian = test system: OVCAR-3 ovarian
RXF 393 renal = test system: RXF 393 renal
SF-268 CNS = test system: SF-268 CNS
SNB-19 CNS = test system: SNB-19 CNS
U251 CNS = test system: U251 CNS
UACC-62 melanoma = test system: UACC-62 melanoma
HOP-62 NSCLC = test system: HOP-62 NSCLC

SMILES	GI50 (CAKI-1 renal) [µM]	TGI (CAKI-1 renal) [µM]	GI50 (KM12 colon) [µM]	TGI (KM12 colon) [µM]	GI50 (LOX IMVI melanoma) [µM]	TGI (LOX IMVI melanoma) [µM]	GI50 (OVCAR-3 ovarian) [µM]	TGI (OVCAR-3 ovarian) [µM]	GI50 (RXF 393 renal) [µM]	TGI (RXF 393 renal) [µM]	GI50 (SF-268 CNS) [µM]	TGI (SF-268 CNS) [µM]	GI50 (SNB-19 CNS) [µM]	TGI (SNB-19 CNS) [µM]	GI50 (U251 CNS) [µM]	TGI (U251 CNS) [µM]	GI50 (UACC-62 melanoma) [µM]	TGI (UACC-62 melanoma) [µM]	GI50 (HOP-62 NSCLC) [µM]	TGI (HOP-62 NSCLC) [µM]
CC1CCCC(C#N)(NOC2=NCCN2)C1 (configuration not stated)	22.7	79	48.4	> 100	12.7	25.4	43	> 100	65.1	> 100	60.3	> 100	> 100	> 100	23.4	78.7	26.4	94.8	–	–
CCOC(=O)c1c(-c2ccccc2)[n+](=O)c2cc(F)c(F)cc2n1[O-]	1.61	3.12	2.01	9.91	0.157	0.298	1.23	2.61	1.38	4.1	1.66	4.07	1.95	3.45	1.25	2.71	–	–	1.42	3.24
Cc1ccccc1-n1c(=S)[nH]c2c(sc(=O)n2-c2ccccc2C)c1=O	–	> 100	–	> 100	–	–	–	> 100	–	> 100	–	> 100	–	> 100	–	> 100	–	> 100	–	> 100
O=c1cc[nH]cc1-c1c[nH]ccc1=O	–	> 100	–	> 100	–	> 100	–	> 100	–	> 100	–	–	–	–	–	> 100	–	> 100	–	–
CC(C)C1(NC(=O)C2CC3c4cccc5[nH]cc(c45)CC3N(C)C2)OC2(O)C3CCCN3C(=O)C(Cc3ccccc3)N2C1=O (configuration not stated)	–	> 100	–	82.2	–	47.7	–	> 100	–	–	–	> 100	–	> 100	–	> 100	–	> 100	–	> 100
COc1ccc(Br)c(CN2CCc3ccccc32)c1OS(=O)(=O)c1ccc(C)cc1	–	–	–	> 100	–	–	–	75.9	–	65.7	–	> 100	–	> 100	–	–	–	–	–	–
O=S(=O)(/N=S(/Nc1ccccc1)C(F)(F)Cl)c1ccccc1 (configuration not stated)	–	–	–	> 100	–	> 100	–	> 100	–	> 100	–	> 100	–	> 100	–	> 100	–	> 100	–	> 100
COc1ccc(-c2cc3ccccc3[nH]c2=O)cc1OC	–	> 100	–	> 100	–	> 100	–	–	–	> 100	–	> 100	–	> 100	–	> 100	–	> 100	–	> 100
O=C1CC(C2(O)C(=O)Nc3ccc([N+](=O)[O-])cc32)c2ccccc21 (configuration not stated)	–	–	–	98.6	–	33	–	67.7	–	45.5	–	54.7	–	> 100	–	37.8	–	40.2	–	> 100
CC12OC(C(=O)C13CC3)C1C(=O)c3c(O)ccc(O)c3C(=O)C12 (configuration not stated)	4.68	17.9	23.5	90.1	–	–	–	–	16.7	37.6	15.1	45.8	28.9	> 100	14.7	31.1	–	–	21.3	60.5
COc1ccc(Nc2ncnc3ccc(-c4cncc(NS(C)(=O)=O)c4)cc23)cc1Cl	–	–	3.15	11.7	1.5	4.28	1.66	4.78	2.08	5.63	2.3	16.4	2.81	24.4	2.81	13.6	2.14	8.31	2.64	22.6
C=C(C)[C@@H]1CCc2c(O)c(O)c(=O)cc(C)c2C1	–	10.9	–	> 100	–	> 100	–	–	–	> 21.2	–	> 100	–	> 100	–	> 100	–	48.3	–	–
CN1CCC(c2c(O)cc(O)c3c(=O)cc(-c4ccccc4Cl)oc23)C(O)C1 (configuration not stated)	–	–	–	> 100	–	–	< 0.01	0.0223	–	0.0312	–	0.238	–	> 100	–	> 100	0.0506	0.197	–	–
COc1cc(Cc2c(C)cc(OC)c3[nH]c4ccccc4c23)cc2c1[nH]c1ccccc12	–	–	5.43	15	3.85	8.6	–	12.3	–	–	6.97	24.9	–	> 25	4.96	9.84	5.61	> 25	5.49	11
CCOC(=O)c1sc2c(C(=O)OCC)n3cc(C)cc(C)c3c2c1O	–	> 100	–	> 100	–	> 100	–	> 100	–	> 100	–	> 100	–	> 100	–	> 100	–	> 100	–	–
O=C(O)c1c2c(cc3c(=O)c4ccccc4[nH]c13)CCCC2	–	–	–	–	–	> 100	–	> 100	–	> 100	–	> 100	–	> 100	–	–	–	> 100	–	> 100
CC(=O)OCC1OC(n2c(=O)[nH]c(=O)c3n[nH]nc32)C(OC(C)=O)C(OC(C)=O)C1OC(C)=O (configuration not stated)	–	> 100	–	–	–	> 100	–	–	–	> 100	–	> 100	–	> 100	–	> 100	–	> 100	–	> 100
COc1ccc(CSC2=C(C#N)C(=O)NC3(CCCCC3)S2)cc1	–	> 100	–	–	–	> 64.8	–	> 82.1	–	> 73.3	–	> 87.4	–	> 100	–	> 100	–	> 100	–	> 100
Cc1cc(=O)[nH]c(NNC(C#N)c2ccccc2O)n1 (configuration not stated)	–	93.6	–	> 100	–	> 100	–	> 100	–	> 100	–	> 100	–	–	–	> 100	–	70.3	–	99.8
CC(C)N(C(=O)C12C3C4C5(C(=O)O)C(C1C35I)C42C(=O)O)C(C)C (configuration not stated)	–	–	–	> 100	–	–	–	> 100	–	–	–	> 100	–	> 100	–	> 100	–	> 100	–	> 100
Brc1cc(C2OCCCO2)ccc1OCc1ccccc1	–	> 100	–	> 100	–	63.5	–	> 100	–	> 100	–	> 100	–	> 100	–	–	–	> 100	–	> 100
O=C(O)CSC1=NNC2(C(=O)N1)c1ccccc1-c1ccccc12	–	> 10	–	> 10	–	> 10	–	–	–	> 10	–	> 10	–	> 10	–	–	–	> 10	–	> 10
